Measurements: US12185750B2, “Acyl nornicotines reduce sensory irritation in tobacco and nicotine products” (Altria Client Services LLC, priority 2015, dated 2025)
Where two headings read alike, the source gives them in different places.

Assays:
[1] = test system: nicotine triggered release of CGRP in tracheal tissue; assay: nicotine triggered CGRP release in mouse tracheal tissue; assay type: cell-based
Experimental: Mouse tracheal tissue samples are treated with N-Hexanoylnornicotine (10 μM) for 10 minutes. After five minutes of exposure, Nicotine (100 μM) is added to the tracheal tissue samples for the remaining five minutes of N-Hexanoylnornicotine exposure. CGRP release is measured for 15 minutes starting at the time point of N-Hexanoylnornicotine exposure. Control samples are exposed to Nicotine (100 μM) without the addition of N-Hexanoylnornicotine. […]
(§1) FIGS. 2-8 show the results of studies on the effect of acyl nornicotine on nicotine triggered release of CGRP. CGRP is a biomarker of sensory irritation, specifically a marker of neurogenic inflammation. Tracheal or buccal mouse tissue samples were each treated with N-Hexanoylnornicotine or N-Octanoylnornicotine prior to exposure to nicotine or potassium chloride (KCl), used as a control. The test compounds were provided in a synthetic interstitial fluid and the release of CGRP was measured.

[2] = test system: nicotine triggered release of CGRP in buccal tissue; assay: nicotine triggered CGRP release in mouse buccal tissue; assay type: cell-based; details: for effect on buccal nicotine response (CGRP release): 20 mM compound, Nicotine 20 mM, equimolar, FIG. 8
Experimental: Mouse buccal tissue samples are treated with 10 μM or 1 μM of N-Hexanoylnornicotine for 10 minutes. After five minutes of exposure, Nicotine (10 mM) is added to the buccal tissue samples for five minutes. CGRP release is measured for 15 minutes starting at the time point of N-Hexanoylnornicotine exposure. Control samples are exposed to Nicotine (10 mM) without the addition of N-Hexanoylnornicotine.
Mouse buccal tissue samples were treated with N-Hexanoylnornicotine (20 mM) or N-Octanoylnornicotine (20 mM) for 10 minutes. After 5 minutes of exposure, Nicotine (20 mM) was added to the […] tissue samples for five minutes. CGRP release is measured for 20 minutes starting five minutes prior to the time point of N-Octanoylnornicotine and N-Hexanoylnornicotine exposure. Control samples are exposed to Nicotine (20 mM) without the addition of N-Octanoylnornicotine or N-Hexanoylnornicotine.
as §1

[3] = test system: tracheal potassium chloride (KCl) response; assay: KCl triggered CGRP release in mouse tracheal tissue (control); assay type: cell-based; details: 10 μM compound, KCl 60 mM, FIG. 3
Experimental: As in FIG. 2, mouse tracheal tissue samples are treated with N-Hexanoylnornicotine (10 μM) for 10 minutes. After five minutes of exposure, KCl (60 mM) is added to the tracheal tissue samples for the remaining five minutes N-Hexanoylnornicotine exposure. CGRP release is measured for 15 minutes starting at the time point of N-Hexanoylnornicotine exposure. Control samples are exposed to KCl (60 mM) without the addition of N-Hexanoylnornicotine.
as §1

[4] = molecular target: T1, human nicotinic acetylcholine receptor α3β4 (nACHR α3β4) (Homo sapiens, UniProt P30926+P32297); assay: calcium influx in HEK293 cells expressing nACHR α3β4, co-applied with nicotine; assay type: cell-based
T1 construct: expressed in transfected cells; host or cells: HEK293
Experimental: Human cell line HEK293 were designed to express human nicotinic acetylcholine receptor α3β4 (nACHR α3β4), which is a receptor associated with sensory irritation. These cells were plated on 96 well plates and acyl nornicotines were co-applied with a concentration of nicotine sufficient to yield 100% cell activation of the receptor. The influx of calcium into the cell is measured as an indicator of receptor activation.

[5] = half-tongue test: acyl nornicotine pre-treatment before nicotine solution; assay type: in vivo, human
Experimental: The effect of pre-treatment with acyl nornicotine on sensory irritation from nicotine was tested using half-tongue test. N-Octanoylnornicotine was applied to tongues of human volunteers prior to application of a nicotine solution. Randomized sides of tongues were selected for application of liquid test sample or liquid control sample on filter paper. The liquid test sample or liquid control sample was applied to one side of a subject's tongue or the other. Blinded N-Octanoylnornicotine or water on filter paper was applied to the subject's tongue for 2 minutes, and then removed. […] After a 30 second wait, filter papers with added nicotine solutions were applied to the spots on the tongue where the pre-treatment filter papers had been applied. Over the following 2 minutes, subjects were asked to note sensory perceptions. Samples containing N-Octanoylnornicotine were at 10% of the level of the nicotine challenge samples.

[6] = HEK293 nACHR α3β4, calcium influx

T1 sequence (P32297 32-505): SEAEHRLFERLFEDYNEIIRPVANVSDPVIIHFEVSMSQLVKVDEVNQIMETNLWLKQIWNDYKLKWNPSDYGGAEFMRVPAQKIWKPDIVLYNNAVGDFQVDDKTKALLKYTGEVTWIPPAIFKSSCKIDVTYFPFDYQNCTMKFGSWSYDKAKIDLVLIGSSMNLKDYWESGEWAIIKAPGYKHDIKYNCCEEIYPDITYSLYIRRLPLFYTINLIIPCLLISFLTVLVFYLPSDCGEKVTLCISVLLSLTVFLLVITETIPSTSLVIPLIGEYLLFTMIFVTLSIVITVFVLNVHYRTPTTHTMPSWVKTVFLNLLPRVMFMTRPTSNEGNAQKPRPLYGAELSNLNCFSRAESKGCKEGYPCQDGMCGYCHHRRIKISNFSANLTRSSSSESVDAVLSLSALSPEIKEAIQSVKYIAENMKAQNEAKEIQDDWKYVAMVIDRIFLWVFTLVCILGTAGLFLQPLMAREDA
T1 sequence (P30926 22-498): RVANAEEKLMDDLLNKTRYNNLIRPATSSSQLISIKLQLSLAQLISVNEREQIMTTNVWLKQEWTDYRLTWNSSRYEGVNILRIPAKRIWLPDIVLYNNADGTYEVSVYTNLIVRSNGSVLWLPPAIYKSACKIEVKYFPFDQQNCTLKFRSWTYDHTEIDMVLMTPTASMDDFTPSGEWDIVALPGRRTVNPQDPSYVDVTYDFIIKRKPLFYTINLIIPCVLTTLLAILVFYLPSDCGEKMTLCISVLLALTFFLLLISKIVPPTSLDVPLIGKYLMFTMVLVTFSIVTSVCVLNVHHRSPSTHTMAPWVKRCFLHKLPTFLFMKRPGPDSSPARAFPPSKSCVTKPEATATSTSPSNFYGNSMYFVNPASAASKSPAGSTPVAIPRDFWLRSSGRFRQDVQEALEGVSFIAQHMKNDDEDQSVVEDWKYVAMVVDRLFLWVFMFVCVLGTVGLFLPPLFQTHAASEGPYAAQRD

With `CCCCCC(=O)N1CCCC1c1cccnc1` (stereo not drawn) [N-Hexanoylnornicotine] the “effect on specific tracheal nicotine response (CGRP release)” value ([1]; 10 μM compound, Nicotine 100 μM, FIG. 2) was “abolishes the specific tracheal nicotine response”, the “effect on tracheal supramaximal nicotine response (TRPA1/V1 mediated, CGRP release)” value ([1]; 10 μM compound, Nicotine 10 mM, FIG. 4) was “does not change the tracheal supramaximal nicotine response” and the “effect on buccal supramaximal nicotine response (TRPA1/V1 mediated, CGRP release)” value ([2]; 10 μM compound, Nicotine 10 mM, FIG. 5) was “does not change the buccal supramaximal nicotine response”. The “effect on buccal nicotine response (CGRP release)” value [2] was “prevent the buccal nicotine response”, the “effect on tracheal KCl response (CGRP release)” value [3] was “does not change the KCl response” and the calcium influx inhibited ([4]; 1:1 acyl nornicotine:nicotine) was 100%. For the same molecule, the calcium influx inhibited ([4]; 1:10 acyl nornicotine:nicotine) was 50%, the “Activation (threshold)” value [4, 6] was 10 mM and the IC50 ([4]; HEK293 nACHR α3β4, calcium influx, v 70 μM nicotine, read-out: Inhibition (IC50 v 70 μM nicotine)) was 5 µM.

For `CCCCCCCC(=O)N1CCCC1c1cccnc1` (stereo not drawn) [N-Octanoylnornicotine], the “sensation from the compound itself on the tongue” value ([5]; applied on filter paper for 2 minutes, human volunteers) was “tingling or burning sensation”, the “irritation/burn from nicotine after pre-treatment” value ([5]; compound at 10% of the level of the nicotine challenge, versus water side) was “obvious reduction in irritation/burn” and the “effect on specific tracheal nicotinic response (CGRP release)” value ([1]; 100 μM compound, Nicotine 100 μM, equimolar, FIG. 6) was “abrogates the specific tracheal nicotinic response”. The “effect on basal tracheal response (CGRP release)” value ([1]; 100 μM compound, before nicotine, FIG. 6) was “lowers basal tracheal nicotine response”, the “effect on specific and supramaximal tracheal nicotine response (CGRP release)” value ([1]; 10 mM compound, Nicotine 10 mM, equimolar, FIG. 7) was “abrogates the specific and supramaximal nicotine response” and the “relative potency, C8 versus C6 acyl nornicotine” value ([1]; CGRP release in mouse tissue (tracheal/buccal not specified)) was “more potent than a shorter chain (C6) acyl nornicotine”. For the same molecule, the “effect on buccal nicotine response (CGRP release)” value [2] was “prevent the buccal nicotine response”, the IC50 [4] was 0.5 µM and the calcium influx inhibited ([4]; 1:10 acyl nornicotine:nicotine) was 100%. The calcium influx inhibited ([4]; 1:100 acyl nornicotine:nicotine) was 50%, the “Activation (threshold)” value [4, 6] was 1 mM and the “relative potency, C8 versus C6 acyl nornicotine” value ([4]; calcium influx, co-applied with nicotine) was “more potent than shorter chain (C6) acyl nornicotine”.
